Data: patent US4920103A, “Modifications of mycinose and 3-O-demethylmycinose in tylosin-type macrolides” (Eli Lilly and Company, priority 1986, dated 1990)
Converted amounts (≈) assume the structure as drawn. Read-outs that look alike come from different tables or passages of the source.

How the values were obtained:
[1] = tested on: Streptococcus pyogenes C203; assay: MIC, standard agar-dilution assay, S. pyogenes C203; type: cell-based; conditions: Streptococcus pyogenes, C203
Experimental: (§1) The MIC's in Table II were determined by standard agar-dilution assays. The MIC's in Table III were obtained using conventional broth-dilution microtiter tests.

[2] = tested on: Mycoplasma gallisepticum 29C; assay: MIC, broth-dilution microtiter test, M. gallisepticum 29C; type: cell-based; conditions: Mycoplasmoides gallisepticum
Experimental: as §1

[3] = tested on: Pasteurella multocida 17E; assay: MIC, broth-dilution microtiter test, P. multocida 17E; type: cell-based; conditions: Pasteurella multocida, 17E
Experimental: as §1

[4] = tested on: Pasteurella multocida 68C; assay: MIC, broth-dilution microtiter test, P. multocida 68C; type: cell-based
Experimental: as §1

[5] = tested on: Staphylococcus aureus S13E; assay: MIC, standard agar-dilution assay, S. aureus S13E; type: cell-based
Experimental: as §1

[6] = tested on: Pasteurella multocida 60A; assay: MIC, broth-dilution microtiter test, P. multocida 60A; type: cell-based
Experimental: as §1

[7] = tested on: Klebsiella pneumoniae X68; assay: MIC, standard agar-dilution assay, K. pneumoniae X68; type: cell-based
Experimental: as §1

[8] = tested on: Bordetella bronchiseptica; assay: MIC, broth-dilution microtiter test, B. bronchiseptica; type: cell-based
Experimental: as §1

[9] = tested on: Pseudomonas aeruginosa X239; assay: MIC, standard agar-dilution assay, P. aeruginosa X239; type: cell-based
Experimental: as §1

[10] = tested on: Streptococcus sp. 19F; assay: MIC, broth-dilution microtiter test, Streptococcus sp. 19F; type: cell-based; conditions: Streptococcus, SP.19F
Experimental: as §1

[11] = tested on: Staphylococcus aureus V41; assay: MIC, standard agar-dilution assay, S. aureus V41; type: cell-based; conditions: Staphylococcus aureus, V41
Experimental: as §1

[12] = tested on: Staphylococcus aureus X1.1; assay: MIC, standard agar-dilution assay, S. aureus X1.1; type: cell-based
Experimental: as §1

[13] = tested on: Haemophilus influenzae C.L.; assay: MIC, standard agar-dilution assay, H. influenzae C.L.; type: cell-based
Experimental: as §1

[14] = tested on: Staphylococcus aureus; assay: MIC, broth-dilution microtiter test, S. aureus; type: cell-based
Experimental: as §1

[15] = tested on: Mycoplasma gallisepticum 15E; assay: MIC, broth-dilution microtiter test, M. gallisepticum 15E; type: cell-based; conditions: Mycoplasmoides gallisepticum, broth-dilution microtiter, read-out: MIC
Experimental: as §1

[16] = tested on: Staphylococcus epidermidis EPI1; assay: MIC, standard agar-dilution assay, S. epidermidis EPI1; type: cell-based
Experimental: as §1

[17] = tested on: Streptococcus pneumoniae Park I; assay: MIC, standard agar-dilution assay, S. pneumoniae Park I; type: cell-based; conditions: Streptococcus pneumoniae
Experimental: as §1

[18] = tested on: Escherichia coli EC14; assay: MIC, standard agar-dilution assay, E. coli EC14; type: cell-based
Experimental: as §1

[19] = tested on: Pasteurella hemolytica 23C; assay: MIC, broth-dilution microtiter test, P. hemolytica 23C; type: cell-based
Experimental: as §1

[20] = tested on: Pasteurella multocida 22A; assay: MIC, broth-dilution microtiter test, P. multocida 22A; type: cell-based
Experimental: as §1

[21] = tested on: Streptococcus Group D 2041; assay: MIC, standard agar-dilution assay, Streptococcus Group D 2041; type: cell-based; conditions: GROUPD2041
Experimental: as §1

[22] = tested on: Pasteurella hemolytica 22C; assay: MIC, broth-dilution microtiter test, P. hemolytica 22C; type: cell-based
Experimental: as §1

[23] = tested on: Pasteurella hemolytica 41D; assay: MIC, broth-dilution microtiter test, P. hemolytica 41D; type: cell-based
Experimental: as §1

[24] = tested on: Staphylococcus aureus X400; assay: MIC, standard agar-dilution assay, S. aureus X400; type: cell-based
Experimental: as §1

[25] = tested on: Pasteurella multocida 40G; assay: MIC, broth-dilution microtiter test, P. multocida 40G; type: cell-based
Experimental: as §1

[26] = tested on: Mycoplasma hyopneumoniae S5972; assay: MIC, broth-dilution microtiter test, M. hyopneumoniae S5972; type: cell-based; conditions: Mesomycoplasma hyopneumoniae, S5972; broth-dilution microtiter; read-out: MIC
Experimental: as §1

[27] = tested on: Streptococcus pyogenes C203; assay: Protection of mice experimentally infected with Streptococcus pyogenes C203; type: in vivo; conditions: Streptococcus pyogenes, doses given 1 and 4 hours postinfection, read-out: ED50
Experimental: The formula 1 compounds have shown in vivo antimicrobial activity against experimentally-induced infections in laboratory animals. When two doses of test compound were administered to mice experimentally infected with Streptococcus pyogenes C203, the activity observed was measured as an ED50 value [effective dose in mg/kg to protect 50% of the test animals: see Warren Wick, et al., J. Bacteriol. 81, 233-235 (1961)].
^a mg/kg × 2; doses given 1 and 4 hours postinfection

[28] = tested on: Streptococcus Group D X66; assay: MIC, standard agar-dilution assay, Streptococcus Group D X66; type: cell-based
Experimental: as §1

[29] = tested on: Haemophilus influenzae 76; assay: MIC, standard agar-dilution assay, H. influenzae 76; type: cell-based
Experimental: as §1

[30] = tested on: Mycoplasma gallisepticum 36H; assay: MIC, broth-dilution microtiter test, M. gallisepticum 36H; type: cell-based; conditions: Mycoplasmoides gallisepticum
Experimental: as §1

[31] = tested on: Staphylococcus epidermidis 222; assay: MIC, standard agar-dilution assay, S. epidermidis 222; type: cell-based
Experimental: as §1

[32] = tested on: Mycoplasma synoviae 40A; assay: MIC, broth-dilution microtiter test, M. synoviae 40A; type: cell-based; conditions: Mycoplasmopsis synoviae, 40A
Experimental: as §1

[33] = tested on: Mycoplasma hyorhinis 29E; assay: MIC, broth-dilution microtiter test, M. hyorhinis 29E; type: cell-based; conditions: Mycoplasma, 29E; broth-dilution microtiter; read-out: MIC
Experimental: as §1

[34] = broth-dilution microtiter, read-out: MIC

## CCC1OC(=O)CC(O)C(C)C(OC2OC(C)C(O)C(N(C)C)C2O)C(CCOc2ccccc2)CC(C)C(=O)C=CC(C)=CC1COC1OC(C)C(=NO)C(OC)C1OC (stereo not drawn) [Compound 4, 4"-O-Hydroxyimino-20-DH-20-O-phenyl-desmycosin]
[1]
  MIC: 2 µg/mL (≈ 2.32 µM)
[2]
  MIC: 1.56 µg/mL (≈ 1.81 µM)
[3]
  MIC: 50 µg/mL (≈ 57.9 µM)
[4]
  MIC: 50 µg/mL (≈ 57.9 µM)
[5]
  MIC: 1 µg/mL (≈ 1.16 µM)
[6]; broth-dilution microtiter, avian isolate, read-out: MIC
  MIC: > 50 µg/mL
[7]; agar-dilution, read-out: MIC
  MIC: > 128 µg/mL
[8]; [34]
  MIC: > 50 µg/mL
[9]; agar-dilution, read-out: MIC
  MIC: > 128 µg/mL
[10]
  MIC: 0.78 µg/mL (≈ 0.904 µM)
[11]
  MIC: 1 µg/mL (≈ 1.16 µM)
[12]
  MIC: 0.5 µg/mL (≈ 0.579 µM)
[13]; agar-dilution, ampicillin-sensitive strain, read-out: MIC
  MIC: > 128 µg/mL
[14]
  MIC: 1.56 µg/mL (≈ 1.81 µM)
[15]
  MIC: 25 µg/mL (≈ 29 µM)
[16]
  MIC: 1 µg/mL (≈ 1.16 µM)
[17]
  MIC: 2 µg/mL (≈ 2.32 µM)
[18]; agar-dilution, read-out: MIC
  MIC: > 128 µg/mL
[19]; [34]
  MIC: > 50 µg/mL
[20]; [34]
  MIC: > 50 µg/mL
[21]
  MIC: 4 µg/mL (≈ 4.63 µM)
[22]; [34]
  MIC: > 50 µg/mL
[23]; [34]
  MIC: > 50 µg/mL
[24]
  MIC: 1 µg/mL (≈ 1.16 µM)
[25]
  MIC: 50 µg/mL (≈ 57.9 µM)
[26]
  MIC: > 50 µg/mL
[27]; C203, oral
  ED50: 39.6 mg/kg
[27]; C203, sc, subcutaneous
  ED50: > 10 mg/kg
[28]
  MIC: 2 µg/mL (≈ 2.32 µM)
[29]; agar-dilution, ampicillin-resistant strain, read-out: MIC
  MIC: > 128 µg/mL
[30]
  MIC: 50 µg/mL (≈ 57.9 µM)
[31]
  MIC: 0.5 µg/mL (≈ 0.579 µM)

## CCC1OC(=O)CC(O)C(C)C(OC2OC(C)C(OC(C)=O)C(N(C)C)C2OC(C)=O)C(CCOc2ccccc2)CC(C)C(=O)C=CC(C)=CC1COC1OC(C)CC(OC)C1OC (stereo not drawn) [Compound 10, 2',4'-Di-O-acetyl-4"-deoxy-20-DH-20-O-phenyl-desmycosin]
[1]
  MIC: 0.5 µg/mL (≈ 0.545 µM)
[2]; [34]
  MIC: < 0.048 µg/mL
[3]
  MIC: 50 µg/mL (≈ 54.5 µM)
[32]
  MIC: 3.12 µg/mL (≈ 3.4 µM)
[4]
  MIC: 50 µg/mL (≈ 54.5 µM)
[5]
  MIC: 0.5 µg/mL (≈ 0.545 µM)
[6]
  MIC: > 50 µg/mL
[7]
  MIC: > 128 µg/mL
[8]
  MIC: > 50 µg/mL
[9]
  MIC: > 128 µg/mL
[10]; [34]
  MIC: 6.25 µg/mL (≈ 6.81 µM)
[11]
  MIC: 0.5 µg/mL (≈ 0.545 µM)
[12]
  MIC: 0.25 µg/mL (≈ 0.272 µM)
[13]
  MIC: 64 µg/mL (≈ 69.7 µM)
[14]
  MIC: 0.78 µg/mL (≈ 0.85 µM)
[16]
  MIC: 0.25 µg/mL (≈ 0.272 µM)
[17]
  MIC: 0.5 µg/mL (≈ 0.545 µM)
[18]
  MIC: > 128 µg/mL
[19]
  MIC: 50 µg/mL (≈ 54.5 µM)
[20]
  MIC: > 50 µg/mL
[21]
  MIC: 4 µg/mL (≈ 4.36 µM)
[33]
  MIC: 25 µg/mL (≈ 27.2 µM)
[22]
  MIC: > 50 µg/mL
[23]
  MIC: 50 µg/mL (≈ 54.5 µM)
[24]
  MIC: 0.5 µg/mL (≈ 0.545 µM)
[25]
  MIC: > 50 µg/mL
[26]
  MIC: 6.25 µg/mL (≈ 6.81 µM)
[28]
  MIC: 2 µg/mL (≈ 2.18 µM)
[29]
  MIC: 64 µg/mL (≈ 69.7 µM)
[30]; [34]
  MIC: 25 µg/mL (≈ 27.2 µM)
[31]
  MIC: 0.25 µg/mL (≈ 0.272 µM)
